The record followed here is patent publication US12391647B2, “Benzamide compound and preparation method, use, and pharmaceutical composition thereof” (INSTITUTE OF MATERIA MEDICA, CHINESE ACADEMY OF MEDICAL …, priority 2018, dated 2025).

The subject of one assay is STAT3 transcription. Kind of assay: STAT3 specific luciferase double reporter gene experiment in DU145 cells. Conditions: for STAT3 transcription inhibition activity: DU145, STAT3 specific luciferase double reporter; for IC50: Homo sapiens, DU-145, DU145 with high STAT3 expression, 24 h. It counts as cell-based, human. As for the experimental part:
The luciferase plasmids STAT3-TA-Luc and pGMLR-TK were transiently co-transfected into DU145 cells by Lipofectamine 3000. After staying overnight, different concentrations of compounds to be tested were added and cultured for 24 hours. The supernatant was discarded, and the residue was washed twice with PBS, and then 20 μL of lysis solution was added to shake and lyse for 5 min. The supernatant was transferred to a 96-well Costar whiteplate, and 70 μL of Dual-Glo luciferase substrate solution was added, and the relative fluorescence intensity of firefly luciferase was detected, and then 70 μL of Stop-Glo substrate solution was added, and the relative fluorescence intensity of sea kidney luciferase was detected, the normalized value was obtained, and the inhibition rate and IC50 value were calculated.
In general terms: In a reporter assay the amount or activity of a reporter protein is the signal.

For assay [1], the system named is human prostate cancer cell DU145. Kind of assay: MTT assay, survival rate of tumor cells (antiproliferative activity). Conditions: DU-145, 72 h, read-out: Antiproliferative activity against human prostate cancer cell DU145, IC50. It counts as cell-based. On the procedure:
DU145 cells (human prostate cancer cells) in logarithmic growth phase were digested with 0.25% trypsin-EDTA to prepare single cell suspension, which was inoculated into 96-well plate overnight according to 1500 cells/well/100 μL, and fresh medium containing different concentrations of compounds to be tested and corresponding solvent control was added, and 100 μL (DMSO final concentration <0.1%) was added to each well, and the 96-well plate was further cultured at 37° C. for 72 h. 20 μL of freshly prepared PBS solution containing 5 mg/mL MTT was added to each well, and the 96-well plate was further cultured for 4 h. After the supernatant was discarded, 180 μL of DMSO was added to each well to dissolve the MTT formazan precipitate. After the 96-well plate was shaked and mixed by a micro oscillator, the optical density (OD) at the detection wavelength of 570 nm was measured. With DMSO-treated tumor cells as the control group, the inhibition rate on the growth of tumor cells of the compound to be tested was calculated from the following formula, and the IC50 was calculated according to the median-effect equation. Inhibition rate (%)=(average OD value of control group-average OD value of dosing group)/average OD value of control group×100%

Assay [2] has as its system xenograft tumor of human prostate cancer DU145. Kind of assay: Xenotransplantation efficacy study in nude mice. The format is in vivo. Conditions: for Tumor growth inhibition: oral, DU145 xenograft; for inhibitory effect on the growth of xenograft tumor: subcutaneous DU145 xenograft. On the procedure: Tumor cells of human prostate cancer DU145 were collected under aseptic conditions, and the cell density was adjusted to 1×10^6 cells/mL with sterilized normal saline, and then 0.2 mL of which was inoculated subcutaneously in the axillary back of nude mice. When the tumor grew to 1 cm in diameter, it was taken out under aseptic conditions, cut into tumor blocks with the size of 1 mm×1 mm, and inoculated subcutaneously in the axillary back of nude mice. Two weeks later, after the tumor grew to 100˜300 mm^3, the animals were randomly divided into groups and began to be administered (recorded as day 0). The compound to be tested is administered orally. The animals were weighed twice a week and the length and width of tumor were measured with vernier caliper. After the experiment, the nude mice were dislocated and killed, and the tumor tissues were stripped, weighed and photographed. Finally, the tumor inhibition rate was calculated, and the anti-tumor effect was evaluated by the tumor inhibition rate. The results are shown in tables 3 and 4 and FIGS. 2 and 3.
The tumor volume is calculated according to the following formula:
Tumor volume=(a×b^2)/2, where a and b represent the length and width of tumor respectively.
The tumor growth inhibition percentage is calculated according to the following formula: tumor growth inhibition (%)=(1−T/C)×100, T is the tumor volume of group of the compound to be tested, and C is the tumor volume of the solvent control group.

For another assay, the system named is p-STAT3 (Tyr705). Kind of assay: Western blotting of p-STAT3 expression in DU145 cells. The format is cell-based, human. As for the experimental part: DU145 cells treated for 16 h with different concentrations of examples 12, 23, 33 and 34 and DU145 cells in control group were collected and washed twice with pre-cooled PBS. After appropriate amount of RIPA lysate (50 mM Tris-HCl, 1 mM EDTA, 1% Triton X-100, 150 mM NaCl, 0.1% SDS, 1 mM NaF, Na3VO4, protease inhibitor, pH 7.4) was added to lyse for 1 h on ice, the reaction mixture was centrifuged at 4° C., 12,000 rpm for 20 min, and then the supernatant was collected for protein quantification and boiled for denaturation. Equal amount of protein was taken for 10% SDS-PAGE electrophoresis. The specific antibodies of p-STAT3 (Tyr705) and STAT3 were used as primary antibody, which was incubated overnight at 4° C. The corresponding HRP-labeled secondary antibody was used, incubated at room temperature for 2 h, and washed. ECL chemiluminescence substrate reaction solution was added to develop in gel imaging system, and the image was saved. (3-actin was used as internal reference.
A general note: In western blotting, separated proteins are transferred to a membrane and probed.

The structures appear in SMILES notation. Marks after values point to notes of the source that are not given here.

Turning to `Cc1ccc(S(=O)(=O)Nc2cc(C(=O)NCc3cccnc3)ccc2C)cc1` [Example 1, 4-methyl-3-((4-methylphenyl)sulfonamido)-N-(pyridin-3-ylmethyl) benzamide], in the assay with STAT3 transcription, the “STAT3 transcription inhibition activity” value was “obvious STAT3 transcription inhibition activity”. Also, the 50% inhibitory concentration (IC50) (in general, the concentration that inhibits the measured activity by half) in the assay with STAT3 transcription came to 7000 ± 1300 nM; in assay [1], 120 ± 30 nM. Moreover, the results for the Tumor growth inhibition in assay [2] (10 mg/kg × 7 times), in assay [2] (20 mg/kg × 7 times) and in assay [2] (40 mg/kg × 7 times) were 58.8*** %, 62.7*** % and 73.5*** %, respectively. In assay [2], the “inhibitory effect on the growth of xenograft tumor” value (“inhibitory effect on the growth” for short) is listed as “significant inhibitory effects”. Besides, the “inhibitory activity on STAT3 phosphorylation” value (from here on “inhibitory activity”) with p-STAT3 (Tyr705) (DU145, 1 μM concentration) is listed as “obvious inhibitory activity”.
Consider `CCc1ccc(S(=O)(=O)Nc2cc(C(=O)NCc3cccnc3)ccc2C)cc1` [Example 12, 3-((4-ethylphenyl)sulfonamido)-4-methyl-N-(pyridin-3-ylmethyl)benzamide], for which the “STAT3 transcription inhibition activity” value with STAT3 transcription is recorded as “obvious STAT3 transcription inhibition activity”. Besides, the half-inhibitory concentration (IC50) in the assay with STAT3 transcription came out at 1000 nM; in assay [1] it was 40 ± 10 nM. Further, the Tumor growth inhibition in assay [2] (20 mg/kg × 14 times) is reported as 40.4%; in assay [2] (40 mg/kg × 11 times), 79.7*** %. Moreover, the “inhibitory effect on the growth” value in assay [2] is given as “significant inhibitory effects”. The “inhibitory activity” value with p-STAT3 (Tyr705) (DU145, 0.5 μM concentration) was “obvious inhibitory activity”.
`Cc1ccc(S(=O)(=O)Nc2cc(C(=O)NCc3ccc(C)nc3)ccc2C)cc1` [Example 33, 4-methyl-3-((4-methylphenyl)sulfonamido)-N-((6-methylpyridin-3-yl)methyl)benzamide]: the “STAT3 transcription inhibition activity” value in the assay on STAT3 transcription is reported as “obvious STAT3 transcription inhibition activity”. In addition, the IC50 in the assay with STAT3 transcription came out at 500 ± 120 nM; in assay [1] it was 8 ± 1 nM. For the same compound, the Tumor growth inhibition in assay [2] (20 mg/kg × 6 times) is 63.0** %; in assay [2] (40 mg/kg × 5 times) it was 80.0** %. Further, the “inhibitory effect on the growth” value in assay [2] is “significant inhibitory effects”. Besides, the “inhibitory activity” value in the assay on p-STAT3 (Tyr705) (DU145, 0.1 μM concentration) is listed as “obvious inhibitory activity”.
